Source: ChEMBL document CHEMBL3885881, “DrugMatrix”

Species on record: Rattus norvegicus
Experiment: DrugMatrix - Regimen: Daily Repeat
Format: toxicity, organism-based, Sprague-Dawley
Parameters: regimen Daily Repeat, gender Male, age 6-8 weeks
Settings: in vivo, po, 34 mg/kg, route oral GAVAGE, dose level Low, vehicle .5 % CMC; for ABSOLUTE BASOPHIL / ABSOLUTE EOSINOPHIL / ABSOLUTE LYMPHOCYTE / ABSOLUTE MONOCYTE / ABSOLUTE SEGMENTED NEUTROPHIL / BASOPHIL / EOSINOPHIL / ERYTHROCYTE COUNT / HEMATOCRIT / HEMOGLOBIN / LEUKOCYTE COUNT / LYMPHOCYTE / MEAN CORPUSCULAR HEMOGLOBIN / MEAN CORPUSCULAR HEMOGLOBIN CONCENTRATION / MEAN CORPUSCULAR VOLUME / MONOCYTE / NEUTROPHIL / NUCLEATED RED BLOOD CELLS / PLATELET COUNT: tissue Blood; for ALANINE AMINOTRANSFERASE / ALBUMIN / ALKALINE PHOSPHATASE / ASPARTATE AMINOTRANSFERASE / BLOOD UREA NITROGEN / CARBON DIOXIDE / CHLORIDE / CHOLESTEROL / CREATINE PHOSPHOKINASE / CREATININE / GLUCOSE / LACTATE DEHYDROGENASE / LIPASE / PHOSPHORUS / POTASSIUM / SODIUM / TOTAL BILIRUBIN / TOTAL PROTEIN / URIC ACID: tissue Plasma

Compound: NS(=O)(=O)c1cc(C(=O)O)c(NCc2ccco2)cc1Cl [FUROSEMIDE]
- ABSOLUTE BASOPHIL (72 h, time 3 day): 0 CELLS/uL
- ABSOLUTE EOSINOPHIL (72 h, time 3 day): 0 CELLS/uL
- ABSOLUTE LYMPHOCYTE (72 h, time 3 day): 13709 CELLS/uL
- ABSOLUTE MONOCYTE (72 h, time 3 day): 86 CELLS/uL
- ABSOLUTE SEGMENTED NEUTROPHIL (72 h, time 3 day): 1038.33 CELLS/uL
- BASOPHIL (72 h, time 3 day): 0%
- EOSINOPHIL (72 h, time 3 day): 0%
- ERYTHROCYTE COUNT (72 h, time 3 day): 5.45 x10E6/uL
- HEMATOCRIT (72 h, time 3 day): 33.7%
- HEMOGLOBIN (72 h, time 3 day): 13.47 G/DL
- LEUKOCYTE COUNT (72 h, time 3 day): 14.83 x10E3/uL
- LYMPHOCYTE (72 h, time 3 day): 92.33%
- MEAN CORPUSCULAR HEMOGLOBIN (72 h, time 3 day): 24.7 pg
- MEAN CORPUSCULAR HEMOGLOBIN CONCENTRATION (72 h, time 3 day): 39.97 G/DL
- MEAN CORPUSCULAR VOLUME (72 h, time 3 day): 61.87 fL
- MONOCYTE (72 h, time 3 day): 0.67%
- NEUTROPHIL (72 h, time 3 day): 7%
- NUCLEATED RED BLOOD CELLS (72 h, time 3 day): 0 /100WBC
- PLATELET COUNT (72 h, time 3 day): 1150 x10E3/uL
- ALANINE AMINOTRANSFERASE (72 h, time 3 day): 50.33 u/L
- ALBUMIN (72 h, time 3 day): 4.17 G/DL
- ALKALINE PHOSPHATASE (72 h, time 3 day): 404.33 u/L
- ASPARTATE AMINOTRANSFERASE (72 h, time 3 day): 82.67 u/L
- BLOOD UREA NITROGEN (72 h, time 3 day): 16 mg/dL
- CARBON DIOXIDE (72 h, time 3 day): 29.33 mmol/L
- CHLORIDE (72 h, time 3 day): 99 MEQ/L
- CHOLESTEROL (72 h, time 3 day): 46.33 mg/dL
- CREATINE PHOSPHOKINASE (72 h, time 3 day): 391.33 u/L
- CREATININE (72 h, time 3 day): 0.19 mg/dL
- GLUCOSE (72 h, time 3 day): 138.67 mg/dL
- LACTATE DEHYDROGENASE (72 h, time 3 day): 200.67 u/L
- LIPASE (72 h, time 3 day): 9 u/L
- PHOSPHORUS (72 h, time 3 day): 10.7 mg/dL
- POTASSIUM (72 h, time 3 day): 6.62 MEQ/L
- SODIUM (72 h, time 3 day): 143.97 MEQ/L
- TOTAL BILIRUBIN (72 h, time 3 day): 0.33 mg/dL
- TOTAL PROTEIN (72 h, time 3 day): 5.77 G/DL
- URIC ACID (72 h, time 3 day): 1.33 mg/dL
- ABSOLUTE BASOPHIL (120 h, time 5 day): 0 CELLS/uL
- ABSOLUTE EOSINOPHIL (120 h, time 5 day): 0 CELLS/uL
- ABSOLUTE LYMPHOCYTE (120 h, time 5 day): 14118 CELLS/uL
- ABSOLUTE MONOCYTE (120 h, time 5 day): 111.33 CELLS/uL
- ABSOLUTE SEGMENTED NEUTROPHIL (120 h, time 5 day): 770.67 CELLS/uL
- BASOPHIL (120 h, time 5 day): 0%
- EOSINOPHIL (120 h, time 5 day): 0%
- ERYTHROCYTE COUNT (120 h, time 5 day): 5.69 x10E6/uL
- HEMATOCRIT (120 h, time 5 day): 36.23%
- HEMOGLOBIN (120 h, time 5 day): 14 G/DL
- LEUKOCYTE COUNT (120 h, time 5 day): 15 x10E3/uL
- LYMPHOCYTE (120 h, time 5 day): 94%
- MEAN CORPUSCULAR HEMOGLOBIN (120 h, time 5 day): 24.6 pg
- MEAN CORPUSCULAR HEMOGLOBIN CONCENTRATION (120 h, time 5 day): 38.73 G/DL
- MEAN CORPUSCULAR VOLUME (120 h, time 5 day): 63.7 fL
- MONOCYTE (120 h, time 5 day): 0.67%
- NEUTROPHIL (120 h, time 5 day): 5.33%
- NUCLEATED RED BLOOD CELLS (120 h, time 5 day): 0.33 /100WBC
- PLATELET COUNT (120 h, time 5 day): 1289.67 x10E3/uL
- ALANINE AMINOTRANSFERASE (120 h, time 5 day): 54.33 u/L
- ALBUMIN (120 h, time 5 day): 4.37 G/DL
- ALKALINE PHOSPHATASE (120 h, time 5 day): 439.33 u/L
- ASPARTATE AMINOTRANSFERASE (120 h, time 5 day): 88 u/L
- BLOOD UREA NITROGEN (120 h, time 5 day): 23 mg/dL
- CARBON DIOXIDE (120 h, time 5 day): 27 mmol/L
- CHLORIDE (120 h, time 5 day): 100.33 MEQ/L
- CHOLESTEROL (120 h, time 5 day): 42.67 mg/dL
- CREATINE PHOSPHOKINASE (120 h, time 5 day): 236.67 u/L
- CREATININE (120 h, time 5 day): 0.22 mg/dL
- GLUCOSE (120 h, time 5 day): 162.33 mg/dL
- LACTATE DEHYDROGENASE (120 h, time 5 day): 196.67 u/L
- LIPASE (120 h, time 5 day): 8.67 u/L
- PHOSPHORUS (120 h, time 5 day): 11.1 mg/dL
- POTASSIUM (120 h, time 5 day): 6.53 MEQ/L
- SODIUM (120 h, time 5 day): 144.3 MEQ/L
- TOTAL BILIRUBIN (120 h, time 5 day): 0.2 mg/dL
- TOTAL PROTEIN (120 h, time 5 day): 6.13 G/DL
- URIC ACID (120 h, time 5 day): 1.67 mg/dL
